Consider one compound from US20160376374A1, “ANTIBODIES TO CEACAM1 AND KINASE INHIBITORS FOR TREATING BRAF-MUTATED CELLS” (TEL HASHOMER MEDICAL RESEARCH INFRASTRUCTURE AND SERVICES …, priority 2014, published 2016).

Data set [1] relates to CEACAM1 expression on sk-mel-2 cells (W.T. B-Raf, mutated N-Ras). Put plainly: CEACAM1 expression on cells by FACS, W.T. B-Raf / mutated N-Ras cells. Conditions: sk-mel-2 (W.T. B-Raf, mutated N-Ras); 1 μM; FIG. 3C. For orientation: Flow cytometry measures light scatter and fluorescence of single cells or particles in a stream.
Experimental: At each time point, CEACAM1 expression on the cells was determined by FACS. Volume equivalents of DMSO (vehicle) were used as control.
Data set [2] relates to B-Raf V600E (624mel, sk-mel-5) cells. Description: MAPK activity by immunoblotting for phosphorylated ERK1/2, B-Raf V600E cells. It is filed as cell-based. The procedure: (§1) MAPK activity was measured in B-Raf V600E (624mel, sk-mel-5) and B-Raf W.T. (076mel, 013mel) cell samples by immunoblotting for phosphorylated ERK1/2 (pERK, Thr202/Tyr204), total ERK1/2 and actin after 48 hours of exposure to vemurafenib (1 μM).
(§2) MAPK activity was measured in vemurafenib-sensitive and vemurafenib-resistant B-Raf V600E (624mel) cell samples by immunoblotting for phosphorylated ERK1/2 (pERK, Thr202/Tyr204), total ERK1/2 and actin after 24 hours of exposure to 160 nM vemurafenib.
(In general: A western blot detects proteins with antibodies after separation by electrophoresis.)

The test system of data set [3] is CEACAM1 expression on B-Raf W.T. cells (076mel). Description: CEACAM1 expression on cells by FACS, W.T. B-Raf cells. Conditions: 076mel (W.T. B-Raf); 0.1 μM and 1 μM, 2 to 48 hours; FIG. 3A. In kind it is cell-based, human.
The subject of data set [4] is CEACAM1 expression on B-Raf V600E cells (526mel, 624mel). Put plainly: CEACAM1 expression on cells by FACS, mutated B-Raf cells. In kind it is cell-based, human. The procedure: Total RNA was extracted from 1.0*10^6 melanoma cells with TRIZOL. cDNA was generated with standard reverse transcriptase. Real time PCR was performed with CEACAM1-specific primers and compared to glyceraldehyde 3-phosphate dehydrogenase (GAPDH) tested as a control. Cycle threshold (Ct) values above 36 were considered as minimal or no expression. B-Raf genotype was determined by direct sequencing of amplified fragment from genomic DNA that contains the codon for position 600 of the B-Raf protein. Statistical analysis of the correlation between CEACAM1 expression (negative or positive) with the mutation status (positive=V600E, or negative=wild type) was performed by Fisher exact test.
Cells were then tested for CEACAM1 expression using MRG1 (murine antibody to human CEACAM1) in flow cytometry as described above. Total RNA was extracted with TRIZOL and cDNA was generated with a reverse transcriptase, according to routine protocols.

In data set [5] the test system is B-Raf W.T. (076mel, 013mel) cells. Put plainly: MAPK activity by immunoblotting for phosphorylated ERK1/2, B-Raf W.T. cells. It is filed as cell-based. To be noted: B-Raf W.T. cells 076mel, 1 μM, 48 hours, FIG. 2. The procedure: as §1
In data set [6] the test system is B-Raf V600E 526mel melanoma cells. Put plainly: Determined IC50 of vemurafenib used to generate resistant melanoma cells. In kind it is cell-based. The procedure:
B-Raf V600E 526mel melanoma cells were cultured in the presence of 1 μM vemurafenib. Cultivation was performed in RPMI 1640 supplemented with 1 mM Na-Pyruvate, 1 mM Pen-Strep, 1 mM L-Glutamine, 1 mM non-essential amino acids, and 10% heat inactivated fetal calf serum. […] Cells were then tested for CEACAM1 expression using MRG1 (murine antibody to human CEACAM1) in flow cytometry as described above. Total RNA was extracted with TRIZOL and cDNA was generated with a reverse transcriptase, according to routine protocols.

Data set [7] deals with vemurafenib-resistant B-Raf V600E (624mel) cells. Description: MAPK activity by immunoblotting for phosphorylated ERK1/2, vemurafenib-resistant cells. In kind it is cell-based. Conditions: vemurafenib-resistant 624mel; 160 nM, 24 hours; FIG. 4B. The procedure: Two vemurafenib-sensitive B-Raf V600E cell samples (526mel, 624mel) and vemurafenib-resistant cell lines derived therefrom were incubated for 2 days with 1 μM vemurafenib. Cells were then analyzed for CEACAM1 protein expression by FACS as described above. Vemurafenib-resistant cell lines were generated by gradual increase of the inhibitor's concentration in culture, up to 0.32 μM.
as §2

Data set [8] relates to B-Raf V600E cell samples (526mel, 624mel) with cytotoxic T cells. Put plainly: Killing of melanoma cells by cytotoxic T cells, LDH release. In kind it is cell-based. To be noted: pre-incubated with 1 μM, overnight, effector-target ratio 5:1, FIG. 7. The procedure:
Melanoma cells were pre-incubated with 1 μM vemurafenib and then co-incubated overnight with HLA-A2 matched antigen-matched T cells in effector-target ratio of 5:1. Cell killing was determined by LDH release.
A general note: LDH leaks from cells whose membrane has failed.

Each structure is given as a SMILES string.

The IC50 is the concentration that inhibits the measured activity by half. A low value points to greater potency in that assay. For the compound `CCCS(=O)(=O)Nc1ccc(F)c(C(=O)c2c[nH]c3ncc(-c4ccc(Cl)cc4)cc23)c1F` [vemurafenib, N-(3-{[5-(4-chlorophenyl)-1H-pyrrolo[2,3-b]pyridin-3-yl]carbonyl}-2,4-difluorophenyl)propane-1-sulfonamide], the “CEACAM1 expression levels on cells” value in data set [1] is listed as “no effect”; in data set [3] it was “did not have any effect”; in data set [4] (526mel, 624mel (mutated B-Raf), 0.1 μM and 1 μM, 2 to 48 hours, FIG. 3A-B), “dose-dependent effect”. The “phosphorylation of ERK1/2 (pERK, Thr202/Tyr204)” value is “almost completely abolishes the phosphorylation of ERK1/2” in data set [2] (B-Raf V600E cells 624mel, sk-mel-5, 1 μM, 48 hours, FIG. 2); “almost completely abolishes the phosphorylation of ERK1/2” in data set [2] (vemurafenib-sensitive 624mel, 160 nM, 24 hours, FIG. 4B); “no substantial effect” in data set [5]. Also, in data set [4] (B-Raf V600E 526mel melanoma cells, 1 μM, flow cytometry with MRG1, FIG. 5), the CEACAM1 expression entry is listed as “down regulates CEACAM1 expression”. The compound further yielded an IC50 in data set [6] of 0.64 nM. Also, the “MAPK activity (phosphorylated ERK1/2)” value in data set [7] is “practically uninterrupted”. In addition, the “sensitization of melanoma cells to cytotoxic T cells (cell killing by LDH release)” value in data set [8] is listed as “significantly sensitizes melanoma cells to cytotoxic T cells”.
